One data set addresses T1, human recombinant CB1R (Homo sapiens, UniProt P21554).
T1 construct: purchased Perkin-Elmer, Italy; host or cells: HEK-293 cells (membranes)
Kind of data set: Competition binding assay, displacement of [3H]-CP-55,940 from membranes of HEK-293 cells overexpressing CB1R. Particulars: for Ki: [3H]-CP-55,940 displacement, HEK-293 membranes, 90 min at 30 °C, Cheng-Prusoff, read-out: Ki hCB1R (µM ± S.E.); for inhibition at 10 µM: read-out: % Displacement/ Max. Conc. Tested, hCB1R. As for the experimental part: (§1) The binding affinities (Ki values) of the compounds for human recombinant hCB1R and hCB2R were determined as previously described, using SR144528 as a reference compound [30], and are reported in Table 1.
(§2) Compound affinity for CB1R and CB2R was measured as previously reported. […] Competition curves were performed by displacing [^3H]-CP-55 940 with increasing concentrations of compounds (0.1 nM–10 or 25 μM). […] All compounds were tested following the procedure described by the manufacturer (Perkin-Elmer, Italy). Displacement curves were generated by incubating drugs with [^3H]-CP-55 940 for 90 min at 30 °C. Ki values were calculated by applying the Cheng−Prusoff equation to the IC50 values for the displacement of the bound radioligand by increasing concentrations of the test compound. Data represent the mean values of three independent experiments performed in duplicate and are expressed as the average of Ki (µM) ± standard deviation. Data were analyzed using PRISM.9.3 software (GraphPad Software Inc, San Diego, CA, USA).

The next data set concerns the target human CB2R (Homo sapiens, UniProt P34972). Kind of data set: Competition binding assay, displacement of [3H]-CP-55,940 from membranes of HEK-293 cells overexpressing CB2R. Further details: purchased Perkin-Elmer, Italy; host or cells: HEK-293 cells (membranes). Particulars: for Ki: [3H]-CP-55,940 displacement, HEK-293 membranes, 90 min at 30 °C, Cheng-Prusoff, read-out: Ki hCB2R (µM ± S.E.). As for the experimental part: as §1, §2
(Displacement assays read how much labelled ligand stays bound in the presence of the test substance.)

[1] abbreviates: max conc. tested 10 µM, read-out: % Displacement/ Max Conc. Tested, hCB2R (converted).

Data on 23 compounds can be found in article PMC9738591, “N-[1,3-Dialkyl(aryl)-2-oxoimidazolidin-4-ylidene]-aryl(alkyl)sulphonamides as Novel Selective Human Cannabinoid Type 2 Receptor (hCB2R) Ligands; Insights into the Mechanism of Receptor Activation/Deactivation” (Molecules, 2022).

Read-outs that look alike come from different tables or passages of the source. Where only a bound is given, the exact number is not on record here.

T1 sequence (P21554 whole entry): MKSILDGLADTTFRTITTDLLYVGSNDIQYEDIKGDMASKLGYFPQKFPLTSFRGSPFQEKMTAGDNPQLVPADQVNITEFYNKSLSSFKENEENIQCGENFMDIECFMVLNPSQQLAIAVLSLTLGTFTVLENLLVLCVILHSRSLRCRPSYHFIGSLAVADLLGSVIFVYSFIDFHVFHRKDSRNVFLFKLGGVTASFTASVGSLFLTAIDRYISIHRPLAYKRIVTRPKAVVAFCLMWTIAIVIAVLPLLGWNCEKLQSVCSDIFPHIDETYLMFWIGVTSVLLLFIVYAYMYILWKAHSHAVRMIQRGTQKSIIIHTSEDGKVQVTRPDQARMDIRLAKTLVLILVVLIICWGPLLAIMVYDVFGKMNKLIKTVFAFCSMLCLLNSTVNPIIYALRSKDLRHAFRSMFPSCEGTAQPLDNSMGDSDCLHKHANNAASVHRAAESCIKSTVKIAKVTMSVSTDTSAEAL
Sequence of human CB2R (P34972 whole entry): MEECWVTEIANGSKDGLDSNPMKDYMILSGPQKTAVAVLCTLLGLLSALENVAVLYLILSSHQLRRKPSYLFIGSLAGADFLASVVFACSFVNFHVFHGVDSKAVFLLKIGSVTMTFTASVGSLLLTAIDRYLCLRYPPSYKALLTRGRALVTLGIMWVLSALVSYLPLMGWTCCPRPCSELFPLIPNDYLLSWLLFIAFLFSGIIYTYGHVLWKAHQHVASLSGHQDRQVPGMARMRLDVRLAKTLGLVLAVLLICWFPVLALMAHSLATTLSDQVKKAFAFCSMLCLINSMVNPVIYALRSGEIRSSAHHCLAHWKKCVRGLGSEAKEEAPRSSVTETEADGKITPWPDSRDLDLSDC

A word on the Ki: it is a measure of affinity in units of concentration, obtained from inhibition or displacement. In the case of `CCN1CC(=NS(=O)(=O)c2ccc(C)cc2)N(CC)C1=O` [Compound 1, N-[1,3-Diethyl-2-oxoimidazolidin-4-ylidene]-4-methylbenzenesulfonamide], the Ki at human recombinant CB1R and at human CB2R was > 10 µM in each case. Further, the inhibition at 10 µM is 8.78% on human recombinant CB1R (max conc. tested 10 µM) and 7.7% at human CB2R (setting [1]).
Regarding `CN1CC(=NS(=O)(=O)c2ccccc2)N(C)C1=O` [Compound 4a, N-[1,3-Dimethyl-2-oxoimidazolidin-4-ylidene]benzenesulfonamide], the Ki at human recombinant CB1R and at human CB2R was > 10 µM in each case. For the same compound, the inhibition at 10 µM was 32.8% at human recombinant CB1R (max conc. tested 10 µM) and 6.19% at human CB2R (setting [1]).
On to `Cc1ccc(S(=O)(=O)N=C2CN(C)C(=O)N2C)cc1` [Compound 4b, N-[1,3-Dimethyl-2-oxoimidazolidin-4-ylidene]-4-methylbenzenesulfonamide], for which the Ki on human recombinant CB1R and on human CB2R was > 10 µM in each case. Also, the inhibition at 10 µM on human recombinant CB1R (max conc. tested 10 µM) is 26.9%; at human CB2R (setting [1]), 7.08%.
Regarding `CN1CC(=NS(=O)(=O)c2ccc(Cl)cc2)N(C)C1=O` [Compound 4c, 4-Chloro-N-[1,3-dimethyl-2-oxoimidazolidin-4-ylidene]benzenesulfonamide], the Ki on human recombinant CB1R and at human CB2R was > 10 µM throughout. The inhibition at 10 µM at human recombinant CB1R (max conc. tested 10 µM) was 47.5%; at human CB2R (setting [1]), 12.3%.
In the case of `CN1CC(=NS(=O)(=O)c2ccc(Br)cc2)N(C)C1=O` [Compound 4d, 4-Bromo-N-[1,3-dimethyl-2-oxoimidazolidin-4-ylidene]benzenesulfonamide], the Ki at human recombinant CB1R and at human CB2R was > 10 µM each time. Further, the inhibition at 10 µM at human recombinant CB1R (max conc. tested 10 µM) is 14.9%; on human CB2R (setting [1]), 10.7%.
As to `CCN1CC(=NS(=O)(=O)c2ccccc2)N(CC)C1=O` [Compound 4e, N-[1,3-Diethyl-2-oxoimidazolidin-4-ylidene]benzenesulfonamide], the Ki on human recombinant CB1R and on human CB2R was > 10 µM each time. The inhibition at 10 µM is 22.7% at human recombinant CB1R (max conc. tested 10 µM) and 7.72% at human CB2R (setting [1]).
`CCN1CC(=NS(=O)(=O)c2ccc(Cl)cc2)N(CC)C1=O` [Compound 4f, 4-Chloro-N-[1,3-diethyl-2-oxoimidazolidin-4-ylidene]benzenesulfonamide]: the Ki on human recombinant CB1R and at human CB2R was > 10 µM each time. Also, the results for the inhibition at 10 µM on human recombinant CB1R (max conc. tested 10 µM) and at human CB2R (setting [1]) were 17.8% and 14.9%, respectively.
In the case of `CCN1CC(=NS(=O)(=O)c2ccc(Br)cc2)N(CC)C1=O` [Compound 4g, 4-Bromo-N-[1,3-diethyl-2-oxoimidazolidin-4-ylidene]benzenesulfonamide], the Ki at human recombinant CB1R and on human CB2R was > 10 µM in each case. Also, the values for the inhibition at 10 µM at human recombinant CB1R (max conc. tested 10 µM) and at human CB2R (setting [1]) were 20.6% and 13.4%, respectively.
As for `CC(C)(C)N1CC(=NS(C)(=O)=O)N(c2ccccc2)C1=O` [Compound 9a, N-[1-tert-Butyl-2-oxo-3-phenylimidazolidin-4-ylidene]-methanesulfonamide], the Ki at human recombinant CB1R and at human CB2R was > 10 µM each time. Moreover, the inhibition at 10 µM at human recombinant CB1R is 9.48%; on human CB2R (setting [1]) it was 8.84%.
Regarding `CC(C)(C)N1CC(=NS(=O)(=O)c2ccccc2)N(c2ccccc2)C1=O` [Compound 9b, N-[1-tert-Butyl-2-oxo-3-phenylimidazolidin-4-ylidene]benzenesulfonamide], the Ki at human recombinant CB1R and on human CB2R was > 10 µM each time. For the same compound, the inhibition at 10 µM on human recombinant CB1R was 12%; on human CB2R (setting [1]), 22.6%.
For `Cc1ccc(S(=O)(=O)N=C2CN(C(C)(C)C)C(=O)N2c2ccccc2)cc1` [Compound 9c, N-[1-tert-Butyl-2-oxo-3-phenylimidazolidin-4-ylidene]-4-methylbenzenesulfonamide], the Ki on human recombinant CB1R and on human CB2R was > 10 µM in each case. The inhibition at 10 µM at human recombinant CB1R is 7.22%; on human CB2R (setting [1]) it was 5.39%.
For `CC(C)(C)N1CC(=NS(=O)(=O)c2ccc(Br)cc2)N(c2ccccc2)C1=O` [Compound 9d, 4-Bromo-N-[1-tert-butyl-2-oxo-3-phenylimidazolidin-4-ylidene]benzenesulfonamide], the inhibition at 10 µM on human recombinant CB1R (max conc. tested 10 µM) stood at 17.4%; at human CB2R (read-out: % Displacement/ Max Conc. Tested, hCB2R), 53.5%. Further, on human CB2R, the Ki is > 10 µM.
In the case of `CC(C)(C)N1CC(=NS(=O)(=O)c2cccc(Br)c2)N(c2ccccc2)C1=O` [Compound 9e, 3-Bromo-N-[1-tert-butyl-2-oxo-3-phenylimidazolidin-4-ylidene]benzenesulfonamide], the Ki at human recombinant CB1R and at human CB2R was > 10 µM each time. In addition, the inhibition at 10 µM was 4.64% on human recombinant CB1R (max conc. tested 10 µM) and 24.1% at human CB2R (setting [1]).
Consider `Cc1cc(C)c(S(=O)(=O)N=C2CN(C(C)(C)C)C(=O)N2c2ccccc2)c(C)c1` [Compound 9f, N-[1-tert-Butyl-2-oxo-3-phenylimidazolidin-4-ylidene]-2,4,6-trimethylbenzenesulfonamide], for which the Ki on human recombinant CB1R and on human CB2R was > 10 µM in each case. Besides, the results for the inhibition at 10 µM on human recombinant CB1R (max conc. tested 10 µM) and at human CB2R (setting [1]) were 0% and 47.8%, respectively.
For the compound `CC(C)(C)N1CC(=NS(=O)(=O)c2cccc3ccccc23)N(c2ccccc2)C1=O` [Compound 9g, N-[1-tert-Butyl-2-oxo-3-phenylimidazolidin-4-ylidene]naphthalene-1-sulfonamide], the Ki on human recombinant CB1R and on human CB2R was > 10 µM each time. The inhibition at 10 µM at human recombinant CB1R was 14.8%; on human CB2R (setting [1]), 11%.
For `CC(C)(C)N1CC(=NS(=O)(=O)c2ccc3ccccc3c2)N(c2ccccc2)C1=O` [Compound 9h, N-[1-tert-Butyl-2-oxo-3-phenylimidazolidin-4-ylidene]naphthalene-2-sulfonamide], the inhibitory constant (Ki) on human recombinant CB1R and on human CB2R was > 10 µM each time. Further, the inhibition at 10 µM at human recombinant CB1R was 8.35%; at human CB2R (setting [1]) it was 35.6%.
One may read the melting point as the temperature, or range, at which the solid turns liquid. Take `CC(C)(C)N1CC(=NS(C)(=O)=O)N(CC2CC2)C1=O` [Compound 10a, N-[1-tert-Butyl-3-cyclopropylmethyl-2-oxoimidazolidin-4-ylidene]methanesulfonamide]: the melting point was 83.5 to 84 °C. In addition, at human recombinant CB1R, the Ki is > 10 µM and the inhibition at 10 µM stood at 16.3%. Also, the Ki on human CB2R is > 10 µM. In addition, the inhibition at 10 µM at human CB2R (setting [1]) is 13.4%.
As to `Cc1ccc(S(=O)(=O)N=C2CN(C(C)(C)C)C(=O)N2CC2CC2)cc1` [Compound 10c, N-[1-tert-Butyl-3-cyclopropylmethyl-2-oxoimidazolidin-4-ylidene]-4-methylbenzenesulfonamide], the melting point is 104.5 to 105 °C. At human recombinant CB1R, the Ki is > 10 µM and the inhibition at 10 µM came out at 0%. Moreover, the inhibition constant (Ki) at human CB2R stood at 1.47 ± 0.05 µM. In addition, the inhibition at 25 µM on human CB2R (max conc. tested 25 µM, read-out: % Displacement/ Max Conc. Tested, hCB2R (converted)) was 89.5%.
`CC(C)(C)N1CC(=NS(=O)(=O)c2ccc(Br)cc2)N(CC2CC2)C1=O` [Compound 10d, 4-Bromo-N-[1-tert-Butyl-3-cyclopropylmethyl-2-oxoimidazolidin-4-ylidene]benzenesulfonamide] registered a melting point of 98 to 98.5 °C. On human recombinant CB1R, the Ki is > 10 µM and the inhibition at 10 µM amounted to 22.2%. For the same compound, the Ki at human CB2R was found to be 0.83 ± 0.25 µM. Besides, the inhibition at 10 µM at human CB2R (setting [1]) is 77.2%.
Turning to `CC(C)(C)N1CC(=NS(=O)(=O)c2ccc3ccccc3c2)N(CC2CC2)C1=O` [Compound 10h, N-[1-tert-Butyl-3-cyclopropylmethyl-2-oxoimidazolidin-4-ylidene]naphthalene-2-sulfonamide], the Ki at human recombinant CB1R is > 10 µM; on human CB2R, 0.78 ± 0.17 µM. Moreover, the inhibition at 10 µM was 8.18% on human recombinant CB1R and 72.3% on human CB2R (setting [1]).
For the compound `CC(C)N1CC(=NS(=O)(=O)c2cccc3ccccc23)N(CC2CC2)C1=O` [Compound 13, N-[3-(cyclopropylmethyl)-2-oxo-1-(propan-2-yl)imidazolidin-4-ylidene]naphthalene-1-sulfonamide], the Ki on human recombinant CB1R is > 10 µM; at human CB2R, 0.8 ± 0.02 µM. In addition, the inhibition at 10 µM was 4.63% on human recombinant CB1R and 78.3% on human CB2R (setting [1]).
The corresponding values for `Cc1ccc(S(=O)(=O)N=C2CN(C(C)(C)C)C(=O)N2CC(C)C)cc1` [Compound 14, N-[1-tert-Butyl-3-(2-methylpropyl)-2-oxoimidazolidin-4-ylidene]-4-methylbenzene-1-sulfonamide] are > 10 µM, > 10 µM, 0.02% and 47.8%.
The corresponding values for `CC(C)(C)N1C(=O)N(CC2CC2)CC1=NS(=O)(=O)c1ccccc1` [Compound 15, N-[3-tert-Butyl-1-(cyclopropylmethyl)-2-oxoimidazolidin-4-ylidene]benzenesulfonamide] are > 10 µM, 1.61 ± 0.16 µM, 0.01% and 73.9%.
